Experimental data: ChEMBL document CHEMBL1134193, “Initial structure-activity relationship of a novel class of nonpeptidyl GnRH receptor antagonists: 2-arylindoles” (Bioorg Med Chem Lett, 2001)

Target: T1, Gonadotropin-releasing hormone receptor (Rattus norvegicus) (UniProt P30969)
T1 sequence (whole entry): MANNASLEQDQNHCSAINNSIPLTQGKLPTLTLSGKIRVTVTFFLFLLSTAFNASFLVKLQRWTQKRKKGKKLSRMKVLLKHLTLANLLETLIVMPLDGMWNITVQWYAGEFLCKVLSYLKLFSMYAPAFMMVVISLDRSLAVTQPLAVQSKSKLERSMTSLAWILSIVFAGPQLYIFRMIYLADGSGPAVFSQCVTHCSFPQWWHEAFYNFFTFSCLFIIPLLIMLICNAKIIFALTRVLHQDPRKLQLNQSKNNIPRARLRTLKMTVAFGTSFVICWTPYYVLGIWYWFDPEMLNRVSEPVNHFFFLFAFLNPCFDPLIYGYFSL
Assay: Percent inhibition of displacement of [125I]- - radio-labeled buserelin from rat Gonadotropin-releasing hormone receptor
Details: concentration not given here

| inhibition [%] | Structure (SMILES) |
| --- | --- |
| 0 | COc1ccc(-c2[nH]c3ccccc3c2CCNC(=O)CCCc2ccc(OCc3ccccc3)cc2)cc1OC |

Target: T2, Gonadotropin-releasing hormone receptor (Rattus norvegicus, UniProt P30969)
T2 sequence (P30969 whole entry): T1 sequence (whole entry)
Assay: Ability to displace [125I]- - radio-labeled buserelin from rat Gonadotropin-releasing hormone receptor
Details: not given

| Structure (SMILES) | IC50 [nM] |
| --- | --- |
| COc1ccc(-c2[nH]c3ccccc3c2CCNC[C@H](O)COc2ccc(O)cc2)cc1OC | 3000 |
| COc1ccc(-c2[nH]c3ccccc3c2CCNC(=O)CCCc2ccc(N)cc2)cc1OC | 30000 |
| Oc1ccc(CCCCNCCc2c(-c3cccc4cnccc34)[nH]c3ccccc23)cc1 | 1900 |
| COc1ccc(-c2[nH]c3ccccc3c2CCNCc2ccc(O)cc2)cc1OC | 20000 |
| Oc1ccc(CCCCNCCc2c(-c3cccc4ccccc34)[nH]c3ccccc23)cc1 | 130 |
| COc1ccc(-c2[nH]c3ccccc3c2CCNC[C@H](O)CCc2ccc(O)cc2)cc1OC | 2000 |
| COc1ccc(-c2[nH]c3ccccc3c2CCNCCCCc2ccc(N)cc2)cc1OC | 10000 |
| COc1ccc(-c2[nH]c3ccccc3c2CCNCCCc2ccc(O)cc2)cc1OC | 6000 |
| COc1ccc(-c2[nH]c3ccccc3c2CCNC(=O)CCCc2ccc([N+](=O)[O-])cc2)cc1OC | > 30000 |
| COc1ccc(-c2[nH]c3ccccc3c2CCNC(=O)CCCc2ccc(O)cc2)cc1OC | > 30000 |
| COc1ccc(-c2[nH]c3ccccc3c2CCNCCCCc2ccc(OCc3ccccc3)cc2)cc1OC | 30000 |
| Cc1cc(C)cc(-c2[nH]c3ccccc3c2CCNCc2ccc(O)cc2)c1 | 9000 |
| Oc1ccc(CCCCNCCc2c(-c3csc4ccccc34)[nH]c3ccccc23)cc1 | 300 |
| COc1ccc(-c2[nH]c3ccccc3c2CCNCCc2ccc(O)cc2)cc1OC | 4000 |
| COc1ccc(-c2[nH]c3ccccc3c2CCNCCCCc2ccc([N+](=O)[O-])cc2)cc1OC | 5000 |
| COc1ccc(-c2[nH]c3ccccc3c2CCNC[C@@H](O)COc2ccc(O)cc2)cc1OC | 3000 |

More lines, now with the values ahead:

| IC50 [nM] | Structure (SMILES) |
| --- | --- |
| 1300 | Oc1ccc(CCCCNCCc2c(-c3ccccc3)[nH]c3ccccc23)cc1 |
| 900 | Cc1cccc(-c2[nH]c3ccccc3c2CCNCCCCc2ccc(O)cc2)c1C |
| 900 | CCc1cccc(-c2[nH]c3ccccc3c2CCNCCCCc2ccc(O)cc2)c1 |
| 50 | Cc1cc(C)cc(-c2[nH]c3ccccc3c2CCNCCCCc2ccc(O)cc2)c1 |
| 250 | Cc1cc(C)cc(-c2[nH]c3ccccc3c2CCNCCCc2ccc(O)cc2)c1 |
| 170 | Oc1ccc(CCCCNCCc2c(-c3cc(Cl)cc(Cl)c3)[nH]c3ccccc23)cc1 |
| 2800 | Cn1ccc2cc(-c3[nH]c4ccccc4c3CCNCCCCc3ccc(O)cc3)ccc21 |
| 10000 | COc1ccc(-c2[nH]c3ccccc3c2CCNCCCCCCc2ccc(O)cc2)cc1OC |
| 600 | Cc1cc(C)cc(-c2[nH]c3ccccc3c2CCNCCCCCCc2ccc(O)cc2)c1 |
| 200 | Cc1cc(C)cc(-c2[nH]c3ccccc3c2CCNCCCCCc2ccc(O)cc2)c1 |
| 1700 | Cc1cccc(C)c1-c1[nH]c2ccccc2c1CCNCCCCc1ccc(O)cc1 |
| 11000 | Oc1ccc(CCCCNCCc2c(-c3ccc(F)cc3)[nH]c3ccccc23)cc1 |
| 9000 | Cc1ccc(-c2[nH]c3ccccc3c2CCNCCCCc2ccc(O)cc2)cc1 |
| 2000 | COc1ccc(-c2[nH]c3ccccc3c2CCNCCCCc2ccc(O)cc2)cc1OC |
| 700 | COc1cc(OC)cc(-c2[nH]c3ccccc3c2CCNCCCCc2ccc(O)cc2)c1 |
| 1500 | Oc1ccc(CCCCNCCc2c(-c3cc(C(F)(F)F)cc(C(F)(F)F)c3)[nH]c3ccccc23)cc1 |
| 2500 | Oc1ccc(CCCCNCCc2c(-c3cc4ccccc4s3)[nH]c3ccccc23)cc1 |
| 2500 | Oc1ccc(CCCCNCCc2c(-c3ccc4ccccc4c3)[nH]c3ccccc23)cc1 |
| 200 | Cc1cc(C)cc(-c2[nH]c3ccccc3c2CCNCCc2ccc(O)cc2)c1 |
| 600 | COc1cccc(-c2[nH]c3ccccc3c2CCNCCCCc2ccc(O)cc2)c1 |
| 400 | Cc1ccc(C)c(-c2[nH]c3ccccc3c2CCNCCCCc2ccc(O)cc2)c1 |
| 200 | Cc1cccc(-c2[nH]c3ccccc3c2CCNCCCCc2ccc(O)cc2)c1 |
| 2000 | COc1ccc(-c2[nH]c3ccccc3c2CCNCCCCCc2ccc(O)cc2)cc1OC |
| 500 | Cc1ccccc1-c1[nH]c2ccccc2c1CCNCCCCc1ccc(O)cc1 |
